Experimental data as given in patent publication EP0913483A2, “Method and reagent for the determination of creatine kinase” (Roche Diagnostics GmbH, priority 1997, dated 1999).

Test system: Glucose-6-phosphat-Dehydrogenase
Test: Conversion of different hexoses by glucose-6-phosphate dehydrogenase in the presence of NADP+ (photometric)
Type: biochemical
Conditions: Hexose 50 mmol/l, G6P-DH 10 U/ml, NADP+ added, 37 °C, 340 nm, ca. 40 min, Imidazol·HCl pH 6,6
Description: Beispiel 1: Umsetzung verschiedener Hexosen mit Glucose-6-phosphat-Dehydrogenase in Gegenwart von NADP^+
Testansatz: Es wurden in einer Küvette mit einer Schichtdicke von 1 cm jeweils 1,0 ml Reagenz A mit 0,1 ml Reagenz B vermischt und mit einem Spektralphotometer bei 37 °C und 340 nm der Extinktionsverlauf über ca. 40 min verfolgt.

Compound	NADPH-Bildung (Extinktionsverlauf)
Glucose [reference compound]	signifikante NADPH-Bildung
O=C(CO)[C@@H](O)[C@H](O)[C@H](O)CO [Fructose]	keine Extinktionsveränderung meßbar
Mannose	keine Extinktionsveränderung meßbar
